Two compounds from US20260146102A1, “METHODS FOR MODULATING REGULATORY T CELLS” (Universite de Lausanne, priority 2018, published 2026) can be followed below.

SMILES strings stand for the structures.

In test [1] the test system is YUMM1.7 melanoma. Nature of the test: YUMM1.7 melanoma-engrafted mice treated with PPARβ selective agonist. Format: in vivo. The method, then: Tumor engraftment and treatment of tumor-bearing mice. For tumor induction, 3-week-old Braf/Pten mice were treated with 4-hydroxytamoxifen on the skin surface as described before to induce tumor formation (Ho, P. C. et al. Cancer Res 74, 3205-3217 (2014)). For tumor engraftment, 5×10^4 cells YUMM1.7, B 16-OVA, or one million MC38 tumor cells were injected subcutaneously in 50 μl PBS. Tumors were measured every 2-3 days post tumor engraftment or indicated treatments and calculated. Tumor volume was calculated by volume=(length×width^2 )/2 for engrafted tumor or volume=(length×width×height) for inducible tumor. For in vivo treatment, Yumm 1.7-bearing mice were administrated every 3 days with either DMSO or PPARβ agonist (GW 501516) (1 mg per kg of body weight, Cayman Chemical) by intraperitoneal injection. For antibody-based treatment, tumor-bearing mice were treated with anti-PD-1 antibody (200 μg per injection, BioXcell, clone 29F.1A12) and anti-CD36 antibody (200 μg per injection, clone CRF D-2712 (Driscoll, W. S., et al. Circulation research 113, 52-61 (2013)) according to indicated combination by intraperitoneal injection. For antibody treatment in the Braf/Pten mouse model, four weeks after tumor induction, tumor-bearing Braf/Pten mice were treated with anti-CD36 antibody and/or anti-PD-1 antibody as indicated above for a period of 10 days. All experiments were conducted according to Swiss federal regulations.
Tumor digestion and cell isolation. Tumors were minced into small pieces in RPMI containing 2% FBS, 1% penicillin-streptomycin (p/s), DNase I (1 μg/ml, Sigma-Aldrich), and collagenase (0.5 mg/ml, Sigma-Aldrich) and kept for digestion for 40 min at 37° C., followed by the filtration with a 70 μm cell strainer. Filtered cells were incubated with ACK lysis buffer (Invitrogen) to lyse red blood cells and then washed with fluorescent activated cell sorter (FACS) buffer (phosphate-buffered saline with 2% fetal bovine serum and 2 mM EDTA). Tumor-infiltrating leukocytes were further enriched by percoll density gradient centrifugation (800×g, 30 min) at room temperature as described before (Cheng, W. C. et al. Nat Immunol 20, 206-217 (2019)).
Flow cytometry, cell sorting, and antibodies. Single cell suspensions were incubated with Fc receptor-blocking anti-CD16/32 (93) and anti-CD351 (TX61) antibodies (Biolegend) on ice for 10 min before staining. Cell suspensions were first stained with LIVE/DEAD® Fixable Violet Dead Cell Stain Kit (ThermoFisher) at 37° C. for 10 min. After washing, surface proteins were stained for 30 min at 4° C. […] Samples were analyzed on LSRII flow cytometers (BD Biosciences) and data were analyzed with FlowJo. […]

Test [2] deals with CD36-deficient Tregs. Nature of the test: NAD/NADH measurement in CD36-deficient iTregs cultured in cancer cell-conditioned medium. Format: cell-based, mice. The following applies: 48 h, vs DMSO. The method, then: Cancer cell-conditioned medium and iTreg culture. iTregs were generated by activating naïve CD4^+ T cells with Dynabeads conjugated with anti-CD3 and anti-CD28 mAbs (ThermoFisher) in RMPI media supplemented with 10% FBS, 10 ng/ml TGFβ and 50 U/ml IL-2 for three days. Then activated CD 4^+ T cells were maintained in RPMI media plus 10% FBS and 50 U/ml IL-2 for another 2 days. Differentiated iTregs were firstly sorted by using FACS cell sorter and then incubated in indicated culture condition for 48 h. The survival and NAD/NADH levels of iTregs were then determined by live/dead staining and ELISA kits, respectively. For NAD/NADH measurement in CD36-KO iTregs treated with PPARβ agonist, sorted iTregs were cultured in cancer cell-conditioned medium in the presence of DMSO or GW50156 for 48 h. […]
NAD and NADH measurement. The ratio of nicotinamide adenine dinucleotide (NAD) and nicotinamide adenine dinucleotide […] (NADH) was measured by using the commercial NAD/NADH Quantification Kit (Sigma-Aldrich MAK037). […]
decomposition. The samples were then transferred to a 96 wells plate for measuring the absorbance of 450 nm. […] The ratio of NAD/NADH in a sample could be determined by the following equation: ratio=(NADtotal−NADH)/NADH.

The subject of test [3] is CD36-deficient Tregs. As to the kind of experiment: Viability of iTregs in cancer cell-conditioned medium with or without NR. The following applies: NR 400 μM, 72 hrs (FIG. 3i). Format: cell-based, mice. The method, then: Cancer cell-conditioned medium and iTreg culture. iTregs were generated by activating naïve CD4^+ T cells with Dynabeads conjugated with anti-CD3 and anti-CD28 mAbs (ThermoFisher) in RMPI media supplemented with 10% FBS, 10 ng/ml TGFβ and 50 U/ml IL-2 for three days. Then activated CD 4^+ T cells were maintained in RPMI media plus 10% FBS and 50 U/ml IL-2 for another 2 days. […] The survival and NAD/NADH levels of iTregs were then determined by live/dead staining and ELISA kits, respectively. For NAD/NADH measurement in CD36-KO iTregs treated with PPARβ agonist, sorted iTregs were cultured in cancer cell-conditioned medium in the presence of DMSO or GW50156 for 48 h. Control RPMI for iTreg in vitro treatment was prepared with RPMI 1640 medium (Biological Industries) supplementing with 2 mM Glucose, 10 mM Glutamine, 10% Dialyzed FBS, 0.1% β-ME, and indicated levels of lactic acids. YUMM1.7 cancer cell-conditioned medium was collected by incubating YUMM1.7 cells (70-80% density) with control RPMI described above for 18 h. Then, culture medium was collected and centrifuged at 2000 rpm for 15 min to remove debris and cancer cells as cancer cell-conditioned medium. YUMM1.7 cancer cell-conditioned medium collected as described above was treated with Cleanascite™ reagent (Biotech Support Group) prior to Treg culture at a volume ratio of 1:5 according to the manufacturer's instruction.

On to `Cc1cc(SCc2sc(-c3ccc(C(F)(F)F)cc3)nc2C)ccc1OCC(=O)O` [GW501516], for which the “cleaved caspase-3 in intratumoral Tregs” value in test [1] (Treg^CD36−/− mice (FIG. 4i)) is given as “lower levels”. The “mitochondrial membrane potential of intratumoral Tregs (MitoTracker Deep Red staining)” value in test [1] (Treg^CD36−/− mice (FIG. 4h)) was “increased mitochondrial membrane potentials”. In test [1] (Treg^CD36−/− mice, 1 mg per kg i.p. every 3 days, two weeks (FIG. 4g)), the “intratumoral Treg abundance (FoxP3+ Tregs among CD4+ tumor-infiltrating T lymphocytes)” value is “restored”. The tumor growth entry in test [1] (Treg^CD36−/− mice, 1 mg per kg i.p. every 3 days, two weeks, vs control vehicle (FIG. 4f)) is on record as “restored tumor growth”. The NAD/NADH ratio entry in test [2] is reported as “increased NAD/NADH ratios”.
Take `NC(=O)c1ccc[n+]([C@@H]2O[C@H](CO)[C@@H](O)[C@H]2O)c1` [nicotinamide riboside]: the “viability of CD36-deficient Tregs exposed to cancer cell-conditioned medium” value in test [3] is recorded as “partially rescued the viability”.
